Type in all cases: cell-based
Data set [1] has as its target T1, NaV1.7 (Homo sapiens (Human), UniProt Q15858). Description: NaV flux assay, inhibition of NaV1.7. As to conditions: NaV flux data, included when EP data is not available.
The target of data set [2] is T2, NaV1.5 (Homo sapiens (Human), UniProt Q14524). Description: NaV flux assay, inhibition of NaV1.5. The following applies: NaV flux data, included when EP data is not available.
Data set [3] has as its target T1, NaV1.7. Description: Patch voltage clamp electrophysiology (EP), affinity for the inactivated state of Nav1.7. The following applies: HEK-293 cells expressing human Nav1.7 with β1 subunit. As to the method:
(§1) The following patch voltage clamp electrophysiology studies were performed on representative compounds of the invention using human embryonic kidney cells (HEK), permanently transfected with an expression vector containing the full-length cDNA coding for the desired human sodium channel α-subunit, grown in culture media containing 10% FBS, 1% PSG, and 0.5 mg/mL G418 at 37° C. with 5% CO2. […] Nav1.7 and Nav1.5 cDNAs (NM_002977 and AC137587; SCN5A, respectively) were stably expressed in HEK-293 cells. The β1 subunit was coexpressed only in the Nav1.7 cell line.
(§2) Sodium currents were measured using the patch clamp technique in the whole-cell configuration using either a PatchXpress automated voltage clamp or manually using an Axopatch 200B (Axon Instruments) or Model 2400 (A-M systems) amplifier. […] The pipette was filled with a solution comprised of: 5 mM NaCl, 10 mM CsCl, 120 mM CsF, 0.1 mM CaCl2, 2 mM MgCl2, 10 mM HEPES, 10 mM EGTA; and adjusted to pH 7.2 with CsOH. The external solution had the following composition: 140 mM NaCl, 5 mM KCl, 2 mM CaCl2, 1 mM MgCl2, 10 mM HEPES; and adjusted to pH 7.4 with NaOH. In some studies, the external sodium was reduced by equimolar replacement with choline. Osmolarity in the CsF internal and NaCl external solutions was adjusted to 300 mOsm/kg and 310 mOsm/kg with glucose, respectively. All recordings were performed at ambient temperature in a bath chamber with a volume of 150 μL. Control sodium currents were measured in 0.5% DMSO. Controls and representative compounds of the invention were applied to the recording chamber through a 4-pinch or 8-pinch valve bath perfusion system manufactured by ALA Scientific Instruments.
Series resistance compensation was applied (60-80%). […] All statistics in this study are given as mean±SD.
(§3) The membrane potential was maintained at a voltage where inactivation of the channel is complete (which was −60 mV for both Nav1.7 and Nav1.5). The voltage is then stepped back to a very negative (Vhold=−150 mV) voltage for 20 ms and then a test pulse is applied to quantify the compound block. […] The percent decrease in sodium current following wash-on of compound was taken as the percent block of sodium channels.
(§4) The Example numbers provided in Table 1 and Table 2 correspond to the Examples herein: […]

For data set [4], the target named is T2, NaV1.5. Description: Patch voltage clamp electrophysiology (EP), affinity for the inactivated state of Nav1.5. As to the method:
Patch voltage clamp electrophysiology allows for the direct measurement and quantification of block of voltage-gated sodium channels (Nav's), and allows the determination of the time- and voltage-dependence of block which has been interpreted as differential binding to the resting, open, and inactivated states of the sodium channel (Hille, B., Journal of General Physiology (1977), 69: 497-515).
as §1, §2
Currents were recorded at 40 kHz sampling frequency, filtered at […], and stored using a Digidata-1322A analogue/digital interface with the pClamp software (Axon Instruments). Series resistance compensation was applied (60-80%). […] All statistics in this study are given as mean±SD.
as §3, §4

Where [5] appears, read: HEK-293 cells expressing human Nav1.5, read-out: NaV1.5 IC50.
Setting [6] is: HEK-293 cells expressing human Nav1.5, read-out: NaV1.5 IC50(μM) (class).

The values below come from US9630929B2, “Benzenesulfonamide compounds and their use as therapeutic agents” (XENON PHARMACEUTICALS INC., priority 2011, dated 2017).

T1 sequence (Q15858 other isoform, or with tags, fused parts or gaps): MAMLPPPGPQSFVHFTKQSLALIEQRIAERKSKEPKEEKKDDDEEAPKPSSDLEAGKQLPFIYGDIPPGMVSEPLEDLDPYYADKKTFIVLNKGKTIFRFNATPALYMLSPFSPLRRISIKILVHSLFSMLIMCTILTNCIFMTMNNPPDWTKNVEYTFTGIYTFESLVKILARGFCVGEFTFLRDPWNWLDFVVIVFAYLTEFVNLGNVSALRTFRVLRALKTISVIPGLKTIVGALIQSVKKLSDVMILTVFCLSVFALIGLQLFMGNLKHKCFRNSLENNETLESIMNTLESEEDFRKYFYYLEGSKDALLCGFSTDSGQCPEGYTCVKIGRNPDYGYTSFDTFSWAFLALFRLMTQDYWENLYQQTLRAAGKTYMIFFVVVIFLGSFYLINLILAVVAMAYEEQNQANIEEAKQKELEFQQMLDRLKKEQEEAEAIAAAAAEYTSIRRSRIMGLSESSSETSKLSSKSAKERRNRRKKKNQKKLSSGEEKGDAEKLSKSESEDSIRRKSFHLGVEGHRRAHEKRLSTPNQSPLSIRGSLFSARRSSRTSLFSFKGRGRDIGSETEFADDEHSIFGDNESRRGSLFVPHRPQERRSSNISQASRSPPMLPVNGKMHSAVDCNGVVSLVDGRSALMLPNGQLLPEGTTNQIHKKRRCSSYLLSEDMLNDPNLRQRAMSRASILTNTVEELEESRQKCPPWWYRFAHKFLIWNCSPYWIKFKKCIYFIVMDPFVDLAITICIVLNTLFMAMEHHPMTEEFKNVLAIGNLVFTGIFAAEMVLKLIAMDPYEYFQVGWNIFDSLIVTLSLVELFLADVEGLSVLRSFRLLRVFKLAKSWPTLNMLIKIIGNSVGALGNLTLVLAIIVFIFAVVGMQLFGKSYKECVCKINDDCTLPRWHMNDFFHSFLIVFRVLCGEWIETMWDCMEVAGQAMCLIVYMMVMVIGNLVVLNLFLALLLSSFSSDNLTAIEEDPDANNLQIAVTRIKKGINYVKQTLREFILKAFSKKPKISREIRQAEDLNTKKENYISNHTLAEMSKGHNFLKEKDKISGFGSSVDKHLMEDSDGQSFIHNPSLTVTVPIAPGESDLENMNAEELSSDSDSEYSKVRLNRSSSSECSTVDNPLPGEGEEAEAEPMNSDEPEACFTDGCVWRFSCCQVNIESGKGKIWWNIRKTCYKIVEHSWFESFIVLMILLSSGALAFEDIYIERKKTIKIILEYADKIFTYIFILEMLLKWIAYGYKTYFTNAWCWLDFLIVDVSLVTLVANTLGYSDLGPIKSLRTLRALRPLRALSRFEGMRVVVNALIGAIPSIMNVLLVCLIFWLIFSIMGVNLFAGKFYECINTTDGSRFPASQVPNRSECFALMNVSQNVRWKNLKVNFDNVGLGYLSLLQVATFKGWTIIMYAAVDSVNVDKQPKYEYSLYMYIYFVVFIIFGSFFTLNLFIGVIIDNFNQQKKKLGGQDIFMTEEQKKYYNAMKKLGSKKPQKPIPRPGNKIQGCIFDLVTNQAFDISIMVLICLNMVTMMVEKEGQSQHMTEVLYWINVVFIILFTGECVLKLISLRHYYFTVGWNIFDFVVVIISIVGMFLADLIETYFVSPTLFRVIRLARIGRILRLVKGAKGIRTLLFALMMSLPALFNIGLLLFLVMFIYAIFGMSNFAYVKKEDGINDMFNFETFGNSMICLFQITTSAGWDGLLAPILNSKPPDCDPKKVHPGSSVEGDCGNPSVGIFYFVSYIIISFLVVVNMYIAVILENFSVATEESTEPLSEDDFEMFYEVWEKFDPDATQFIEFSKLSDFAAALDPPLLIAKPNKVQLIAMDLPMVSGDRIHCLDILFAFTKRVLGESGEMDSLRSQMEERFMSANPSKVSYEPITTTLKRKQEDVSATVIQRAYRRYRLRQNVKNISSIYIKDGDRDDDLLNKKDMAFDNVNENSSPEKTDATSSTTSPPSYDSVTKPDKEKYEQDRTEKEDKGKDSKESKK
T1 sequence (Q07699 19-218 partner): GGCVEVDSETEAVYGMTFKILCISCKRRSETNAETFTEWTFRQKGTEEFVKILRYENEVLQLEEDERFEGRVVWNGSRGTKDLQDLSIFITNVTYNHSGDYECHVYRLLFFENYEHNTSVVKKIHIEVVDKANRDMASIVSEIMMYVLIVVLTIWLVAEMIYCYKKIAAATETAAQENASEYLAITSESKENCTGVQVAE
T2 sequence (Q14524 whole entry): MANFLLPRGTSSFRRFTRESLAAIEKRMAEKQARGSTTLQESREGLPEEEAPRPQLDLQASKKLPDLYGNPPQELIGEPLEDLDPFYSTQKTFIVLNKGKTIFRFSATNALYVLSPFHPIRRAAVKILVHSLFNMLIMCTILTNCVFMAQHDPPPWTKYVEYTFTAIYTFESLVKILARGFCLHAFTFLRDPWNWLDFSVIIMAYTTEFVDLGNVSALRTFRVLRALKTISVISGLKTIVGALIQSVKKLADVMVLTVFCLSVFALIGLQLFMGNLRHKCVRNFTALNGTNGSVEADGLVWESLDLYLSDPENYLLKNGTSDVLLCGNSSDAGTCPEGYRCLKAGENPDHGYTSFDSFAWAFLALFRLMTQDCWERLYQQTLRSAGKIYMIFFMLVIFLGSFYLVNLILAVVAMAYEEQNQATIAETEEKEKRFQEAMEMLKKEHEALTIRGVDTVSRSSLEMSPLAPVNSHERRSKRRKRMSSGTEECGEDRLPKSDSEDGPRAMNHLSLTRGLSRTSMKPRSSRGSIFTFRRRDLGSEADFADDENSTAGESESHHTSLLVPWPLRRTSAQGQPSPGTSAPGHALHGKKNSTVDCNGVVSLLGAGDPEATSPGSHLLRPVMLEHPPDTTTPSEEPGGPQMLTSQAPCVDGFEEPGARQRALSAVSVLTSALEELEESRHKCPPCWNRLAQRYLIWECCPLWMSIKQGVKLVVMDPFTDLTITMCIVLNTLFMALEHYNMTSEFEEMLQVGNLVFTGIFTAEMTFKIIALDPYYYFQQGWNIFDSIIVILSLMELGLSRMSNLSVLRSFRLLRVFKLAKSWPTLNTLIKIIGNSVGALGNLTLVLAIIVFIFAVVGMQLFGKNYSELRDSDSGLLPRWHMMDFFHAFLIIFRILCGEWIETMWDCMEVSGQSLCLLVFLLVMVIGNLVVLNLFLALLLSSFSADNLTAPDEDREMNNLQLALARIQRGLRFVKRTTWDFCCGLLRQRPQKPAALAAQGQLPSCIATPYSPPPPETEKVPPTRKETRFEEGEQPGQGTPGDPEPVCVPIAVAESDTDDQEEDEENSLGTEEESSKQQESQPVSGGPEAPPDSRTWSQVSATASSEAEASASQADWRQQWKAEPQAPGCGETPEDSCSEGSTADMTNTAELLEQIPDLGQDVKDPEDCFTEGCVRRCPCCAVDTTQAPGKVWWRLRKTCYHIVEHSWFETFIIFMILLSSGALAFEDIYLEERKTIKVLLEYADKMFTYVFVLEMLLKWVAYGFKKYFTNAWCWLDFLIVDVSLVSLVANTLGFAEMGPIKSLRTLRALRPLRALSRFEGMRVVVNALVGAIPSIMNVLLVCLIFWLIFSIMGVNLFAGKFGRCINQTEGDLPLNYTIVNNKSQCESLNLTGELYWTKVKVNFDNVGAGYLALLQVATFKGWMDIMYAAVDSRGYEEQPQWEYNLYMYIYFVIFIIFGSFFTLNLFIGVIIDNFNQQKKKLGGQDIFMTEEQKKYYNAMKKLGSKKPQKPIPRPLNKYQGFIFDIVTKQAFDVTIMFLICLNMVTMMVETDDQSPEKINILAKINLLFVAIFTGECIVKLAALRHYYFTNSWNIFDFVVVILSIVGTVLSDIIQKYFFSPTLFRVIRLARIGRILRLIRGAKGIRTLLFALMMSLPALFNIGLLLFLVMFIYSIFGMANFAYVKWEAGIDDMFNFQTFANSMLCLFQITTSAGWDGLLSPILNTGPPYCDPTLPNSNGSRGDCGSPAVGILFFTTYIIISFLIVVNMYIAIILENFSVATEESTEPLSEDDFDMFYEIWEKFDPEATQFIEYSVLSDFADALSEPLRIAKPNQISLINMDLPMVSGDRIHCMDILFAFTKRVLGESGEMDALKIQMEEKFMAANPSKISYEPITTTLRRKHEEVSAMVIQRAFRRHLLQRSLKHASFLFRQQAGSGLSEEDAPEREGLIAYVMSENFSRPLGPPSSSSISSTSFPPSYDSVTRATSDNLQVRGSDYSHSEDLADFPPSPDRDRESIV

Take `CN(c1ncns1)S(=O)(=O)c1cc(F)c(OC[C@@H]2CNCC[C@H]2c2ccc(Cl)cc2)cc1F` (relative stereo) [Example 79, 4-((trans-4-(4-chlorophenyl)piperidin-3-yl)methoxy)-2,5-difluoro-N-methyl-N-(1,2,4-thiadiazol-5-yl)benzenesulfonamide]: the half-maximal inhibitory concentration (IC50) was 7880 nM against NaV1.7 [1] and > 10000 nM at NaV1.5 [2].
On to `O=S(=O)(Nc1ncns1)c1cc(F)c(OC[C@@H]2CNCC[C@H]2c2ccc(Cl)c(Cl)c2)cc1F` (relative stereo) [Example 92, 4-((trans-4-(3,4-dichlorophenyl)piperidin-3-yl)methoxy)-2,5-difluoro-N-(1,2,4-thiadiazol-5-yl)benzenesulfonamide], for which the IC50 at NaV1.7 [3] (read-out: NaV1.7 (IC50 class)) was < 100 nM; on NaV1.7 [3] (read-out: NaV1.7 IC50), 0.8 nM; against NaV1.5 [2] it was > 10000 nM.
Turning to `COc1ccc([C@@H]2CCNC[C@H]2COc2cc(F)c(S(=O)(=O)Nc3ncns3)cc2F)cc1` (relative stereo) [Example 94, 2,5-difluoro-4-((trans-4-(4-methoxyphenyl)piperidin-3-yl)methoxy)-N-(1,2,4-thiadiazol-5-yl)benzenesulfonamide], the IC50 on NaV1.7 [1] is 132 nM; at NaV1.5 [2], > 10000 nM.
Regarding `CC(C)CNS(=O)(=O)c1cc(F)c(OC[C@@H]2CNCC[C@H]2c2ccc(Cl)cc2)cc1F` (relative stereo) [Example 96, 4-((trans-4-(4-chlorophenyl)piperidin-3-yl)methoxy)-2,5-difluoro-N-isobutylbenzenesulfonamide], the results for the IC50 against NaV1.7 [1] and against NaV1.5 [2] were 4900 nM and 7560 nM, respectively.
Take `O=S(=O)(Nc1ncns1)c1cc(F)c(OC[C@@H]2CNCC[C@H]2c2ccc(Cl)c(F)c2)cc1F` (relative stereo) [Example 97, 4-((trans-4-(4-chloro-3-fluorophenyl)piperidin-3-yl)methoxy)-2,5-difluoro-N-(1,2,4-thiadiazol-5-yl)benzenesulfonamide]: the IC50 on NaV1.5 [2] is > 10000 nM.
`O=S(=O)(c1cc(F)c(OC[C@@H]2CNCC[C@H]2c2ccc(F)cc2)cc1F)n1cccn1` (relative stereo) [Example 98, trans-3-((4-((1H-pyrazol-1-yl)sulfonyl)-2,5-difluorophenoxy)methyl)-4-(4-fluorophenyl)piperidine]: the figures for the IC50 at NaV1.7 [1] and at NaV1.5 [2] were 7220 nM and 7530 nM, respectively.
In the same order, the values of `Cc1ccc([C@@H]2CCNC[C@H]2COc2cc(F)c(S(=O)(=O)Nc3ncns3)cc2F)cc1` (relative stereo) [Example 100, 2,5-difluoro-N-(1,2,4-thiadiazol-5-yl)-4-((trans-4-(p-tolyl)piperidin-3-yl)methoxy)benzenesulfonamide] are 393 nM and > 10000 nM.
`O=S(=O)(Nc1ncns1)c1cc(F)c(OC[C@@H]2CNCC[C@H]2c2cc(F)c(F)cc2F)cc1F` (relative stereo) [Example 106, 2,5-difluoro-N-(1,2,4-thiadiazol-5-yl)-4-((trans-4-(2,4,5-trifluorophenyl)piperidin-3-yl)methoxy)benzenesulfonamide]: the IC50 against NaV1.7 [1] was 181 nM; against NaV1.5 [2], > 10000 nM.
For the compound `O=S(=O)(Nc1ncns1)c1cc(F)c(OC[C@@H]2CNCC[C@H]2c2ccc(F)c(C(F)(F)F)c2)cc1F` (relative stereo) [Example 107, 2,5-difluoro-4-((trans-4-(4-fluoro-3-(trifluoromethyl)phenyl)piperidin-3-yl)methoxy)-N-(1,2,4-thiadiazol-5-yl)benzenesulfonamide], the values for the IC50 against NaV1.7 [1] and at NaV1.5 [2] were 38 nM and > 10000 nM, respectively.
Taken in the same sequence, the figures for `O=S(=O)(Nc1ncns1)c1cc(F)c(OC[C@@H]2CNCC[C@H]2c2ccc(F)c(C(F)F)c2)cc1F` (relative stereo) [Example 108, 4-((trans-4-(3-(difluoromethyl)-4-fluorophenyl)piperidin-3-yl)methoxy)-2,5-difluoro-N-(1,2,4-thiadiazol-5-yl)benzenesulfonamide] were 71 nM and > 10000 nM.
On to `O=C1CC[C@@H](c2ccc(Cl)cc2)[C@H](COc2cc(F)c(S(=O)(=O)Nc3ncns3)cc2F)C1` (relative stereo) [Example 109, 4-((trans-2-(4-chlorophenyl)-5-oxocyclohexyl)methoxy)-2,5-difluoro-N-(1,2,4-thiadiazol-5-yl)benzenesulfonamide], for which the results for the IC50 against NaV1.7 [1] and against NaV1.5 [2] were 244 nM and > 10000 nM, respectively.
`CN1CC[C@H](c2ccc(Cl)cc2)[C@@H](COc2cc(F)c(S(=O)(=O)Nc3ncns3)cc2F)C1` [Example 85, 4-(((3R,4S)-4-(4-chlorophenyl)-1-methylpiperidin-3-yl)methoxy)-2,5-difluoro-N-(1,2,4-thiadiazol-5-yl)benzenesulfonamide]: the half-inhibitory concentration (IC50) is < 100 nM at NaV1.7 [3] (read-out: NaV1.7 (IC50 class)), 4.8 nM at NaV1.7 [3] (read-out: NaV1.7 IC50), > 10 µM on NaV1.5 [4] (setting [5]) and > 10 µM on NaV1.5 [4] (setting [6]).
Take `CN1CC[C@@H](c2ccc(Cl)cc2)[C@H](COc2cc(F)c(S(=O)(=O)Nc3ncns3)cc2F)C1` [Example 86, 4-(((3S,4R)-4-(4-chlorophenyl)-1-methylpiperidin-3-yl)methoxy)-2,5-difluoro-N-(1,2,4-thiadiazol-5-yl)benzenesulfonamide]: the half-inhibitory concentration (IC50) at NaV1.7 [3] (read-out: NaV1.7 (IC50 class)) is 100 to 1000 nM; at NaV1.7 [3] (read-out: NaV1.7 IC50), 331 nM; at NaV1.5 [4] (setting [5]), > 10 µM; on NaV1.5 [4] (setting [6]) it was > 10 µM.
Take `O=S(=O)(Nc1ncns1)c1cc(F)c(OC[C@@H]2C[C@H](O)CCC2c2ccc(Cl)cc2)cc1F` (stereo partly drawn) [Example 110, 4-(((trans-5S)-2-(4-chlorophenyl)-5-hydroxycyclohexyl)methoxy)-2,5-difluoro-N-(1,2,4-thiadiazol-5-yl)benzenesulfonamide]: the IC50 at NaV1.7 [1] is 426 nM; at NaV1.5 [2], > 10000 nM.
Taken in the same sequence, the figures for `O=S(=O)(Nc1ncns1)c1cc(F)c(OC[C@@H]2C[C@@H](O)CCC2c2ccc(Cl)cc2)cc1F` (stereo partly drawn) [Example 111, 4-(((trans-5R)-2-(4-chlorophenyl)-5-hydroxycyclohexyl)methoxy)-2,5-difluoro-N-(1,2,4-thiadiazol-5-yl)benzenesulfonamide] were 2040 nM and > 10000 nM.
`O=S(=O)(Nc1ncns1)c1cc(F)c(OCC2CNCCN2c2ccc(Cl)cc2)cc1F` (stereo not drawn) [Example 112, 4-((1-(4-chlorophenyl)piperazin-2-yl)methoxy)-2,5-difluoro-N-(1,2,4-thiadiazol-5-yl)benzenesulfonamide]: the IC50 is 326 nM at NaV1.7 [1] and > 10000 nM at NaV1.5 [2].
